Target: recombinant human SAE enzyme (Homo sapiens (Human), UniProt Q9UBT2)
Experiment: SAE HTRF enzyme assay
Assay type: biochemical
Settings: for Percent Inhibition: Concentration 0.111 μM; for IC50: class symbols A/B/C
Procedure, shortened: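 Sumoylation of Ubc9-GST by SAE was followed at low ATP (0.5 μM), pH 7.5, 24° C. for 105 min. Product was detected by HTRF with antibody pairs against Flag and GST tags.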

Chain of recombinant human SAE enzyme (Q9UBT2 whole entry): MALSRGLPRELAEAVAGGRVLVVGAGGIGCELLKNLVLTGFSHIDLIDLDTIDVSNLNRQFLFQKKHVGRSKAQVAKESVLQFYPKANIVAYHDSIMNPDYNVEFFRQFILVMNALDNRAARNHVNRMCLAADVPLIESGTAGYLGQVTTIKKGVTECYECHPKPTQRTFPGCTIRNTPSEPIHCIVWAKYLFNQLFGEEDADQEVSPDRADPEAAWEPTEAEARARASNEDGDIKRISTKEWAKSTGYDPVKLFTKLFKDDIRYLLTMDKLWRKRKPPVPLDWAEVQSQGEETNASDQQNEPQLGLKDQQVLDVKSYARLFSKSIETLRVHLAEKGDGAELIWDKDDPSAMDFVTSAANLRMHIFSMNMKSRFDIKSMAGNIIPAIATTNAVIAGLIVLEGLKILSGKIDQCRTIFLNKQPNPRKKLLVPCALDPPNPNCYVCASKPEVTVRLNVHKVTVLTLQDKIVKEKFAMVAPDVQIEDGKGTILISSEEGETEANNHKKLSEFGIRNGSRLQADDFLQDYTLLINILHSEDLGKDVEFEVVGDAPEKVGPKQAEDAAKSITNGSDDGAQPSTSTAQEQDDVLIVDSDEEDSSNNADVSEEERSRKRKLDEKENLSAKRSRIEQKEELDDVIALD
Chain of recombinant human SAE enzyme (Q9UBE0 whole entry partner): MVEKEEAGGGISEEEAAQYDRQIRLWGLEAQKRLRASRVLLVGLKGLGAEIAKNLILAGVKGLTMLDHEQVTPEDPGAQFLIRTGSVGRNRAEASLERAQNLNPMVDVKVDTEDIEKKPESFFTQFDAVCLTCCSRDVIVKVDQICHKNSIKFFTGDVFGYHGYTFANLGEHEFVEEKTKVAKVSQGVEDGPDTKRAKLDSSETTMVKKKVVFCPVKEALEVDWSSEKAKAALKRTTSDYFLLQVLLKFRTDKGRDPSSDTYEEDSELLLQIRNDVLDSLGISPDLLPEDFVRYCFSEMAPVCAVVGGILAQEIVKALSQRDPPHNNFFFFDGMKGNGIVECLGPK

Row | Compound | Percent Inhibition | IC50
1 | CC(c1cccc(Cl)c1)c1csc(C(=O)c2cncnc2N[C@@H]2C[C@H](COS(N)(=O)=O)[C@@H](O)C2)c1 (single isomer, unassigned) [I-117b, [(1R,2S,4R)-4-{[5-({4-[(1S)-1-(3-chlorophenyl)ethyl]-2-thienyl}carbonyl)pyrimidin-4-yl]amino}-2-hydroxycyclopentyl]methyl sulfamate or [(1R,2S,4R)-4-{[5-({4-[(1R)-1-(3-chlorophenyl)ethyl]-2-thienyl}carbonyl)pyrimidin-4-yl]amino}-2-hydroxycyclopentyl]methyl sulfamate] | 97 | < 10 nM
2 | Cc1sc(C(=O)c2cncnc2N[C@@H]2C[C@H](COS(N)(=O)=O)[C@@H](O)C2)cc1[C@H](C)c1cccc(Cl)c1 (single isomer, unassigned) [I-135a, [(1R,2S,4R)-4-{[5-({4-[(1R)-1-(3-chlorophenyl)ethyl]-5-methyl-2-thienyl}carbonyl)pyrimidin-4-yl]amino}-2-hydroxycyclopentyl]methyl sulfamate or [(1R,2S,4R)-4-{[5-({4-[(1S)-1-(3-chlorophenyl)ethyl]-5-methyl-2-thienyl}carbonyl)pyrimidin-4-yl]amino}-2-hydroxycyclopentyl]methyl sulfamate] | 82 | 10 to 100 nM
3 | Cc1sc(C(=O)c2cncnc2N[C@@H]2C[C@H](COS(N)(=O)=O)[C@@H](O)C2)cc1[C@H](C)c1cccc(Cl)c1 (single isomer, unassigned) [I-135b, [(1R,2S,4R)-4-{[5-({4-[(1R)-1-(3-chlorophenyl)ethyl]-5-methyl-2-thienyl}carbonyl)pyrimidin-4-yl]amino}-2-hydroxycyclopentyl]methyl sulfamate or [(1R,2S,4R)-4-{[5-({4-[(1S)-1-(3-chlorophenyl)ethyl]-5-methyl-2-thienyl}carbonyl)pyrimidin-4-yl]amino}-2-hydroxycyclopentyl]methyl sulfamate] | 95 | < 10 nM
4 | NS(=O)(=O)OC[C@H]1C[C@@H](Nc2ncncc2C(=O)c2cc(Cl)c([C@H](O)c3cccc(Cl)c3)s2)C[C@@H]1O (single isomer, unassigned) [I-151a, [(1R,2S,4R)-4-{[5-({4-chloro-5-[(R)-(3-chlorophenyl)(hydroxy)methyl]-2-thienyl}carbonyl)pyrimidin-4-yl]amino}-2-hydroxycyclopentyl]methyl sulfamate or [(1R,2S,4R)-4-{[5-({4-chloro-5-[(S)-(3-chlorophenyl)(hydroxy)methyl]-2-thienyl}carbonyl)pyrimidin-4-yl]amino}-2-hydroxycyclopentyl]methyl sulfamate] | 80 | 10 to 100 nM
5 | NS(=O)(=O)OC[C@H]1C[C@@H](Nc2ncncc2C(=O)c2cc(Cl)c([C@H](O)c3cccc(Cl)c3)s2)C[C@@H]1O (single isomer, unassigned) [I-151b, [(1R,2S,4R)-4-{[5-({4-chloro-5-[(R)-(3-chlorophenyl)(hydroxy)methyl]-2-thienyl}carbonyl)pyrimidin-4-yl]amino}-2-hydroxycyclopentyl]methyl sulfamate or [(1R,2S,4R)-4-{[5-({4-chloro-5-[(S)-(3-chlorophenyl)(hydroxy)methyl]-2-thienyl}carbonyl)pyrimidin-4-yl]amino}-2-hydroxycyclopentyl]methyl sulfamate] | 93 | < 10 nM
6 | CN(C)[C@H](c1cccc(Cl)c1)c1csc(C(=O)c2cncnc2N[C@@H]2C[C@H](COS(N)(=O)=O)[C@@H](O)C2)c1 (single isomer, unassigned) [I-153a, [(1R,2S,4R)-4-{[5-({4-[(R)-(3-chlorophenyl)(dimethylamino)methyl]-2-thienyl}carbonyl)pyrimidin-4-yl]amino}-2-hydroxycyclopentyl]methyl sulfamate or [(1R,2S,4R)-4-{[5-({4-[(S)-(3-chlorophenyl)(dimethylamino)methyl]-2-thienyl}carbonyl)pyrimidin-4-yl]amino}-2-hydroxycyclopentyl]methyl sulfamate] | 30 | 100 to 1000 nM
7 | CN(C)[C@H](c1cccc(Cl)c1)c1csc(C(=O)c2cncnc2N[C@@H]2C[C@H](COS(N)(=O)=O)[C@@H](O)C2)c1 (single isomer, unassigned) [I-153b, [(1R,2S,4R)-4-{[5-({4-[(R)-(3-chlorophenyl)(dimethylamino)methyl]-2-thienyl}carbonyl)pyrimidin-4-yl]amino}-2-hydroxycyclopentyl]methyl sulfamate or [(1R,2S,4R)-4-{[5-({4-[(S)-(3-chlorophenyl)(dimethylamino)methyl]-2-thienyl}carbonyl)pyrimidin-4-yl]amino}-2-hydroxycyclopentyl]methyl sulfamate] | 92 | < 10 nM
8 | Cc1sc(C(=O)c2cncnc2N[C@@H]2C[C@H](COS(N)(=O)=O)[C@@H](O)[C@H]2O)cc1[C@@H]1NCCc2ccc(Br)cc21 (single isomer, unassigned) [I-247a, [(1R,2R,3S,4R)-4-{[5-({4-[(1R)-7-bromo-1,2,3,4-tetrahydroisoquinolin-1-yl]-5-methyl-2-thienyl}carbonyl)pyrimidin-4-yl]amino}-2,3-dihydroxycyclopentyl]methyl sulfamate or [(1R,2R,3S,4R)-4-{[5-({4-[(1S)-7-bromo-1,2,3,4-tetrahydroisoquinolin-1-yl]-5-methyl-2-thienyl}carbonyl)pyrimidin-4-yl]amino}-2,3-dihydroxycyclopentyl]methyl sulfamate] | 100 | < 10 nM
9 | Cc1sc(C(=O)c2cncnc2N[C@@H]2C[C@H](COS(N)(=O)=O)[C@@H](O)[C@H]2O)cc1[C@@H]1NCCc2ccc(Br)cc21 (single isomer, unassigned) [I-247b, [(1R,2R,3S,4R)-4-{[5-({4-[(1R)-7-bromo-1,2,3,4-tetrahydroisoquinolin-1-yl]-5-methyl-2-thienyl}carbonyl)pyrimidin-4-yl]amino}-2,3-dihydroxycyclopentyl]methyl sulfamate or [(1R,2R,3S,4R)-4-{[5-({4-[(1S)-7-bromo-1,2,3,4-tetrahydroisoquinolin-1-yl]-5-methyl-2-thienyl}carbonyl)pyrimidin-4-yl]amino}-2,3-dihydroxycyclopentyl]methyl sulfamate] | 98 | < 10 nM
10 | Cc1sc(C(=O)c2cncnc2N[C@@H]2C[C@H](COS(N)(=O)=O)[C@@H](O)C2)cc1[C@H]1NCCc2ccc(Br)cc21 (single isomer, unassigned) [I-248a, [(1R,2S,4R)-4-{[5-({4-[(1S)-7-bromo-1,2,3,4-tetrahydroisoquinolin-1-yl]-5-methyl-2-thienyl}carbonyl)pyrimidin-4-yl]amino}-2-hydroxycyclopentyl]methyl sulfamate or [(1R,2S,4R)-4-{([5-({4-[(1R)-7-bromo-1,2,3,4-tetrahydroisoquinolin-1-yl]-5-methyl-2-thienyl}carbonyl)pyrimidin-4-yl]amino}-2-hydroxycyclopentyl]methyl sulfamate] | 99 | < 10 nM
11 | Cc1sc(C(=O)c2cncnc2N[C@@H]2C[C@H](COS(N)(=O)=O)[C@@H](O)C2)cc1[C@H]1NCCc2ccc(Br)cc21 (single isomer, unassigned) [I-248b, [(1R,2S,4R)-4-{[5-({4-[(1S)-7-bromo-1,2,3,4-tetrahydroisoquinolin-1-yl]-5-methyl-2-thienyl}carbonyl)pyrimidin-4-yl]amino}-2-hydroxycyclopentyl]methyl sulfamate or [(1R,2S,4R)-4-{[5-({4-[(1R)-7-bromo-1,2,3,4-tetrahydroisoquinolin-1-yl]-5-methyl-2-thienyl}carbonyl)pyrimidin-4-yl]amino}-2-hydroxycyclopentyl]methyl sulfamate] | 95 | < 10 nM
12 | NS(=O)(=O)OC[C@H]1C[C@@H](Nc2ncncc2C(=O)c2cc([C@@H]3NCCc4ccc(Cl)cc43)c(Cl)s2)[C@H](O)[C@@H]1O (single isomer, unassigned) [I-249a, [(1R,2R,3S,4R)-4-{[5-({5-chloro-4-[(1R)-7-chloro-1,2,3,4-tetrahydroisoquinolin-1-yl]-2-thienyl}carbonyl)pyrimidin-4-yl]amino}-2,3-dihydroxycyclopentyl]methyl sulfamate or [(1R,2R,3S,4R)-4-{[5-({5-chloro-4-[(1S)-7-chloro-1,2,3,4-tetrahydroisoquinolin-1-yl]-2-thienyl}carbonyl)pyrimidin-4-yl]amino}-2,3-dihydroxycyclopentyl]methyl sulfamate] | 100 | < 10 nM
13 | NS(=O)(=O)OC[C@H]1C[C@@H](Nc2ncncc2C(=O)c2cc([C@@H]3NCCc4ccc(Cl)cc43)c(Cl)s2)[C@H](O)[C@@H]1O (single isomer, unassigned) [I-249b, [(1R,2R,3S,4R)-4-{[5-({5-chloro-4-[(1R)-7-chloro-1,2,3,4-tetrahydroisoquinolin-1-yl]-2-thienyl}carbonyl)pyrimidin-4-yl]amino}-2,3-dihydroxycyclopentyl]methyl sulfamate or [(1R,2R,3S,4R)-4-{[5-({5-chloro-4-[(1S)-7-chloro-1,2,3,4-tetrahydroisoquinolin-1-yl]-2-thienyl}carbonyl)pyrimidin-4-yl]amino}-2,3-dihydroxycyclopentyl]methyl sulfamate] | 92 | < 10 nM
14 | Cc1sc(C(=O)c2cncnc2N[C@@H]2C[C@H](COS(N)(=O)=O)[C@@H](O)[C@H]2O)cc1[C@@H]1OCCc2ccccc21 (single isomer, unassigned) [I-250a, [(1R,2R,3S,4R)-4-{[5-({4-[(1R)-3,4-dihydro-1H-isochromen-1-yl]-5-methyl-2-thienyl}carbonyl)pyrimidin-4-yl]amino}-2,3-dihydroxycyclopentyl]methyl sulfamate or [(1R,2R,3S,4R)-4-{[5-({4-[(1S)-3,4-dihydro-1H-isochromen-1-yl]-5-methyl-2-thienyl}carbonyl)pyrimidin-4-yl]amino}-2,3-dihydroxycyclopentyl]methyl sulfamate] | 97 | < 10 nM
